Assay results taken from PMC5201116, “Bioactive Flavonoids and Catechols as Hif1 and Nrf2 Protein Stabilizers - Implications for Parkinson’s Disease” (Aging and Disease, 2016).
Read-outs that look alike come from different tables or passages of the source.

Legend:
[1] = test system: HIF1 ODD-luc reporter (SH-SY5Y cell line); assay: HIF1 ODD-luc reporter assay; assay type: cell-based; conditions: for fold induction at 10 µM / EC50: Homo sapiens, SH-SY5Y; for fold induction at 10 µM: 3 h, read-out: ODD-luc fold activation; for fold induction at 10 µM / ODD-luc fold activation: 3 h incubation, at 10 µM
Experimental: (§1) SH-SY5Y cell lines stably expressing HIF1 ODD-luc or Neh2-luc reporters were grown in the DMEM/F12 supplemented with GlutaMAX (Thermo Fisher Scientific) containing 10% FBS, 100 U/ml penicillin, and 100 μg/ml streptomycin and plated into 384-well white flat-bottom plates at 7,000 cell/well in 30 µl serum and incubated overnight at 37°C, 5% CO2. The next day compounds were added to a final concentration of 10 µM and the plates were incubated for 3 hours at 37°C. Reporter activation after 3 h incubation with the studied compound was compared to that for ciclopirox (HIF1 ODD-luc reporter) or TBHQ (Neh2-luc reporter), taken as 100%. Luciferase reporter activity was measured with a SteadyGlo reagent from Promega providing stable reading for 1 h.
(§2) Cells were plated at the density of 25,000 cell per well using a WellMate multichannel dispenser from Matrix (Thermo Fisher Scientific, Waltham, MA) and grown overnight on DMEM/F12+GlutaMAX (100 µl per well). Then an inhibitor was added, and the plates were incubated for a fixed time interval; the medium was removed, cells lysed, and luciferase activity was measured on a SpectraMax M5e platereader (Molecular Devices, Sunnyvale, CA) with BrightGlo™ reagent (Promega, Madison, WI). The reporter activation was normalized to the background luminescence. The effect of 0.5 mM N-acetylcysteine (NAC) was studied by simultaneous addition of 5 µL of 10 mM stock of NAC in water and 2 µL of 50x stock solutions of a flavonoid in DMSO.

[2] = test system: HRE-luciferase reporter (HT22 hippocampal cell line); assay: HRE-luc reporter assay; assay type: cell-based; conditions: for fold induction at 10 µM: Mus musculus, HT-22, 3 h, read-out: HRE-luc fold activation; for fold induction at 10 µM / HRE-luc fold activation: at 10 µM
Description: A promoter-reporter construct that contained 68 bp of a known hypoxia and HIF-1 regulated gene, enolase, containing a wild type hypoxia response element (HRE, 5’-RCTGT-3’), is a widely used approach for screening for HIF activators of different mechanism of action. A cell-based assay with HRE-luciferase reporter system is based on transfected immortalized hippocampal cell line (HT22) and allows screening for a broad spectrum of compounds that include: activators of HIF transcription; activators of HIF binding to HRE; and effectors of HIF protein stability (PHD inhibitors, pVHL & proteasome inhibitors). The assay was performed the same way as for HIF ODD-luc reporter except the cells were plated at the density of 10,000 cell per well and incubated overnight.

[3] = test system: Neh2-luc reporter (SH-SY5Y cell line); assay: Neh2-luc reporter assay; assay type: cell-based; conditions: for EC50: Neh2-luc; for Neh2-luc fold activation / fold induction at 10 µM: at 10 µM, 3 h incubation; for fold induction at 10 µM: read-out: Neh2-luc fold activation; for effect of NAC on Neh2-luc reporter activation: simultaneous addition of 0.5 mM NAC, results not shown
Experimental: as §1, §2

[4] = Iron binding constant, calcein displacement assay; assay type: physicochemical; conditions: calcein displacement
Description: Calcein displacement assay in the presence of varied concentrations of flavonoids and catechols has been used. Calcein release from its complex with iron was monitored by fluorescence as described in [26].

HIF prolyl hydroxylase = target: HIF prolyl hydroxylase; set-up: method as in PMID 3011801; conditions: enzyme in vitro assay; read-out: enzyme inhibition constant; cited from earlier work
[5] = Non-enzymatic ferricyanide reduction rate constant; assay type: physicochemical; conditions: 1 mM ferricyanide, pH 7.0
Experimental: The rate of ferricyanide reduction by individual flavonoids was measured spectrophotometrically at 420 nm with the fixed concentration of ferricyanide (1 mM) and varied concentrations of a flavonoid in Potassium-phosphate buffer, pH 7.0. The rate constant for direct ferricyanide reduction was calculated from the slope of the dependence reaction rate vs flavonoid concentration and used as a measure of flavonoid non-specific reducing power.

[6] = target: T1, Rabbit Reticulocyte 15-LOX-1 (Oryctolagus cuniculus, UniProt P12530); assay: Rabbit LOX 12/15 (rabbit reticulocyte 15-LOX-1) activity; assay type: biochemical; conditions: compounds at 25 µM, Fig. 4A
T1 sequence (P12530 1-663): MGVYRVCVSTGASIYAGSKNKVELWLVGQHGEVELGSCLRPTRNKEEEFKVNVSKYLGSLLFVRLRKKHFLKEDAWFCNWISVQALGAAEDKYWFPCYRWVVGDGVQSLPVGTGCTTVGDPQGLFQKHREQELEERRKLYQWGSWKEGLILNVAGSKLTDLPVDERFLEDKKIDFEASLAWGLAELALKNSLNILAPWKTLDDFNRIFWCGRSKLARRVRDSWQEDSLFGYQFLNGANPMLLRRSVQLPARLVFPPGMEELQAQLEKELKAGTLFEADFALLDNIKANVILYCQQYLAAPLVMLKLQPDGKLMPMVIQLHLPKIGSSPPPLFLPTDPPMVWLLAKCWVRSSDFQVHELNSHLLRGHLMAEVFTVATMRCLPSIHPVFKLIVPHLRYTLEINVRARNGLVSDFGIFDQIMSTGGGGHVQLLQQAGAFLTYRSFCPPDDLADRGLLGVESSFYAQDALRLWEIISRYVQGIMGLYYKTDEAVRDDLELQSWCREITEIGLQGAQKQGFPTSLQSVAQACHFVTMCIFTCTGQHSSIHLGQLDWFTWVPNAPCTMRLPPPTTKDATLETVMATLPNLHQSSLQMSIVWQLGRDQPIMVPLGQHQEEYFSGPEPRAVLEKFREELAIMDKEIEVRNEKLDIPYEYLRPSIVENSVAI
Experimental: The activity of the purified enzyme was measured in the end-point in vitro assay of arachidonic acid oxidation following the formation of fluorescent diphenyl-1-pyrenylphosphine oxide. DMSO was used as a control.

[7] = test system: primary neuronal cultures treated with 5 mM HCA; assay: Glutathione depletion (HCA) model, MTT viability; assay type: cell-based, rat; conditions: for concentration at which neuroprotection begins: glutathione depletion model, Fig. 5; for EC50: Rattus norvegicus, results not shown, read-out: EC50 of protection in glutathione depletion model
Experimental: Primary neuronal cultures were prepared from the forebrains of Sprague-Dawley rat embryos (E17) and plated on 96 well plates at a 10^6 cells/ml density. After 24 hours, cells were rinsed with warm PBS and then placed in minimum Essential Medium (MEM; Life Technologies, Grand Island, NY) containing 5 mM HCA in the presence of a compound of interest at varied concentrations. Cells were incubated for 24 h or longer to see 90% cell death in HCA treated controls. Viability was assessed by the MTT (4,5-dimethylthiazol-2-yl)-2,5-diphenyltetrazolium bromide) assay.

[8] = set-up: method as in PMID 17112238; conditions: cited from earlier work
[9] = test system: VEGF mRNA in immature primary cortical neurons; assay: VEGF mRNA induction, real-time RT-PCR; assay type: cell-based; conditions: overnight pretreatment, Fig. 4B
Experimental: For VEGF gene expression studies, total RNA was isolated from immature primary cortical neurons, pretreated overnight with the indicated concentration of a bioactive compound, using the NucleoSpin RNA II kit (Macherey-Nagel, Bethlehem, PA) according to manufacturer’s protocol. Real-time PCR was performed in triplicate as a duplex reaction using a VEGF (Mm01281449_m1) gene expression assay with a 6-carboxyfluorescein-labeled probe, and a β actin gene expression assay with a VIC-labeled probe (Applied Biosystems, Foster City, CA), so that gene amplification could be normalized to β actin. These experiments were performed using a 7500 Real-time PCR System (Applied Biosystems) using standard PCR protocol and amplification conditions.

HIF PHD2 = conditions: cited from earlier work
[10] = test system: rotenone-induced hemiparkinsonian rats; set-up: method as in PMID 23357119; conditions: 25-75 mg/kg twice a day for 4 days; cited from earlier work

CCOC(=O)c1ccc(O)c(O)c1 [compound 32, Ethyl 3,4-dihydroxybenzoate, reference compound]
ODD-luc: concentration above which active [1]: Active above 50 µM | ODD-luc: concentration above which active ([1]; listed as DHB): above 50 µM | HRE-luc: concentration above which active [2]: Active above 20 µM | EC50 ([3]; Homo sapiens, SH-SY5Y): 20 µM | Neh2-luc fold activation [3]: Inactive | Iron complex Diss. Const [4]: 2.5 ± 0.3 µM | Ki (HIF prolyl hydroxylase): 5 µM

O=c1cc(-c2ccc(O)c(O)c2)oc2cc(O)cc(O)c12 [compound 18, Luteolin]
fold induction at 10 µM [1]: 2.5 ± 0.3 | fold induction at 10 µM [2]: 2 ± 0.25 | EC50 ([3]; Homo sapiens, SH-SY5Y): 2 µM | fold induction at 10 µM ([3]; Homo sapiens, SH-SY5Y): 5 ± 0.6 | Iron complex Diss. Const [4]: 3.5 ± 0.4 µM | FC red Rate Const [5]: 130000 ± 15000 M⁻¹ s⁻¹ | LOX inhibition [6]: equipotent as LOX inhibitors | concentration at which neuroprotection begins [7]: 1.2 µM | EHOMO [8]: -9.09 eV

N[C@@H](Cc1ccc(O)c(O)c1)C(=O)O [compound 29, 3,4-Dihydroxy-L-phenylalanine, reference compound]
EC50 [1]: 15 µM | fold induction at 10 µM [1]: 2 ± 0.25 | fold induction at 10 µM [2]: 1.7 ± 0.2 | EC50 ([3]; Homo sapiens, SH-SY5Y): 20 µM | Neh2-luc fold activation [3]: Inactive | Iron complex Diss. Const [4]: 2.5 ± 0.3 µM | EC50 [7]: 6 µM

O=c1cc(-c2ccc(O)c(O)c2)oc2ccccc12 [compound 19, 3’,4’-dihydroxyflavone]
fold induction at 10 µM [1]: 2.5 ± 0.3 | fold induction at 10 µM [2]: 2 ± 0.25 | EC50 ([3]; Homo sapiens, SH-SY5Y): 2 µM | fold induction at 10 µM ([3]; Homo sapiens, SH-SY5Y): 15 ± 2 | Iron complex Diss. Const [4]: 2.5 ± 0.3 µM | Induction of VEGF mRNA [9]: mild inducers

O=c1c(O)c(-c2ccc(O)c(O)c2)oc2cc(O)ccc12 [compound 10, Fisetin]
fold induction at 10 µM [1]: 1.6 ± 0.2 | fold induction at 10 µM [2]: 2 ± 0.2 | EC50 ([3]; Homo sapiens, SH-SY5Y): 2 µM | fold induction at 10 µM ([3]; Homo sapiens, SH-SY5Y): 23 ± 3 | effect of NAC on Neh2-luc reporter activation [3]: no effect | Iron complex Diss. Const [4]: 2.7 ± 0.3 µM | FC red Rate Const [5]: 301000 ± 34000 M⁻¹ s⁻¹ | LOX inhibition [6]: equipotent as LOX inhibitors | concentration at which neuroprotection begins [7]: 2.5 µM | EHOMO [8]: -8.69 eV

O=c1c(O)c(-c2ccc(O)c(O)c2)oc2cc(O)cc(O)c12 [compound 11, Quercetin]
EC50 [1]: ~2.5 µM | fold induction at 10 µM [1]: 1.5 ± 0.2 | fold induction at 10 µM [2]: 2 ± 0.2 | EC50 ([3]; Homo sapiens, SH-SY5Y): 2 µM | fold induction at 10 µM ([3]; Homo sapiens, SH-SY5Y): 24 ± 3 | effect of NAC on Neh2-luc reporter activation [3]: no effect | Iron complex Diss. Const [4]: 2.7 ± 0.3 µM | FC red Rate Const [5]: 366000 ± 39000 M⁻¹ s⁻¹ | EHOMO [8]: -8.72 eV | Ki (HIF PHD2; read-out: HIF PHD2 apparent inhibition constant): 10 µM | neuroprotection in rotenone model [10]: neuroprotective

O=c1c(-c2ccc(O)c(O)c2)coc2cc(O)ccc12 [compound 27, 3’-Hydroxy-daidzein]
ODD-luc fold activation [1]: 2.5±0.3 fold | HRE-luc fold activation [2]: 2.5±0.3 fold | EC50 [3]: 5 µM | Neh2-luc fold activation [3]: 15±2 fold | Neh2-luc fold activation ([3]; listed as 3’-hydroxydaidzein): active | Iron complex Diss. Const [4]: 3.5 ± 0.4 µM | neuroprotection in glutathione depletion model [7]: protective | concentration at which neuroprotection begins [7]: 2.5 µM

C[C@@](Cc1ccc(O)c(O)c1)(NN)C(=O)O [compound 31, N-Aminomethyldopa, reference compound]
ODD-luc fold activation [1]: Inactive | HRE-luc fold activation [2]: Inactive | EC50 ([3]; Homo sapiens, SH-SY5Y): 20 µM | Neh2-luc fold activation [3]: Inactive | Iron complex Diss. Const [4]: 2.5 ± 0.3 µM | EC50 [7]: > 20 µM

O=c1cc(-c2ccccc2)oc2cc(O)c(O)c(O)c12 [compound 17, Baicalein]
ODD-luc fold activation [1]: Inactive | fold induction at 10 µM [2]: 5 ± 0.6 | Neh2-luc fold activation [3]: Inactive | Iron complex Diss. Const [4]: 2.5 ± 0.3 µM | FC red Rate Const [5]: 25500 ± 3000 M⁻¹ s⁻¹ | EHOMO [8]: -8.99 eV | Ki (HIF PHD2; competitive with α-KG, read-out: PHD2 Ki): 7 µM
